Reference: article PMC7305224, “Mutually stabilizing interactions between proto-peptides and RNA” (Nature Communications, 2020)
Non-standard residues stand in square brackets, D forms with d. Residues, ends and D or L forms follow the SMILES beside them. *: point of attachment. 5FAM = O=C1OC2(c3ccc(O)cc3Oc3cc(O)ccc32)c2ccc(C(=O)*)cc21; Dab = NCC[C@H](N)C(=O)O; Lac = C[C@H](O)C(=O)O

Assays:
[1] = system: RNA duplex 1 (5′-rCrGrCrUrArArArUrCrG-3′ & 5′-rCrGrArUrUrUrArGrCrG-3′); assay: RNA thermal denaturation (Tm) by UV hyperchromicity at 260 nm with synthetic peptides/depsipeptides, RNA duplex 1; type: binding; conditions: for RNA duplex 1 Tm: observed Tm, peptide/depsipeptide 80 mM (so in the source), pH 7.0, mean ± SD; for RNA duplex 1 ΔTm: peptide/depsipeptide 80 μM, pH 7.0, 10 mM phosphate, 100 mM NaCl
[2] = system: 5′-Cy5-U20 RNA; assay: Gel mobility (band) shift assay; type: binding; conditions: 66.6–530 µM FAM-labeled sequence, 5′-Cy5-U20 RNA 26.6 µM, MES-TEA buffer pH 6, 12% native polyacrylamide gel
Protocol: The gel was cropped at the edges for clarity. […] Spectra were recorded in 100 mM MES-TEA buffer (pH 6). d Plot of the change in CD signal at 266 nm as a function of increasing concentrations of depsipeptide 14. Red and blue colors of the filled circles correspond to curves of the same color in panel (c). […] […] An addition of 1.25 µL of glycerol brought the sample volume to a total of 3.75 µL. Samples were loaded onto a 12% native polyacrylamide gel, run at 100 V for 90 min, and imaged using Azure Biosystems c430.

Row | Compound | RNA duplex 1 Tm [1] [°C] | RNA duplex 1 ΔTm [1] [°C] | band shift of RNA in gel mobility shift assay [2]
1 | C[C@H](NC(=O)CNC(=O)c1ccc2c(c1)C(=O)OC21c2ccc(O)cc2Oc2cc(O)ccc21)C(=O)N[C@@H](CCN)C(=O)N[C@@H](CCCCN)C(=O)N[C@@H](C)C(=O)N[C@@H](CCN)C(=O)N[C@@H](CCCCN)C(=O)N[C@@H](C)C(=O)N[C@@H](CCN)C(=O)N[C@@H](CCCCN)C(=O)O[C@@H](C)C(=O)N[C@@H](CCN)C(=O)N[C@@H](CCCCN)C(=O)N[C@@H](C)C(=O)N[C@@H](CCN)C(=O)N[C@@H](CCCCN)C(N)=O [compound 13, 5-FAM-Gly-Ala-Dab-Lys-Ala-Dab-Lys-Ala-Dab-Lys-lac-Dab-Lys-Ala-Dab-Lys NH2] (5FAM-GA[Dab]KA[Dab]KA[Dab]K[Lac][Dab]KA[Dab]K-NH2) | 56.0 ± 0.8 | 12.2 | concentration-dependent band shift
2 | C[C@H](NC(=O)CNC(=O)c1ccc2c(c1)C(=O)OC21c2ccc(O)cc2Oc2cc(O)ccc21)C(=O)N[C@@H](CCN)C(=O)N[C@@H](CCCCN)C(=O)N[C@@H](C)C(=O)N[C@@H](CCN)C(=O)N[C@@H](CCCCN)C(=O)N[C@@H](C)C(=O)N[C@@H](CCN)C(=O)N[C@@H](CCCCN)C(=O)N[C@@H](C)C(=O)N[C@@H](CCN)C(=O)N[C@@H](CCCCN)C(=O)N[C@@H](C)C(=O)N[C@@H](CCN)C(=O)N[C@@H](CCCCN)C(N)=O [compound 12, 5-FAM-Gly-Ala-Dab-Lys-Ala-Dab-Lys-Ala-Dab-Lys-Ala-Dab-Lys-Ala-Dab-Lys NH2] (5FAM-GA[Dab]KA[Dab]KA[Dab]KA[Dab]KA[Dab]K-NH2) | 54.4 ± 0.6 | 10.6 | concentration-dependent band shift
